Data taken from patent US7741359B2, “Hydrogen sulfide derivatives of non-steroidal anti-inflammatory drugs” (Antibe Therapeutics Inc., priority 2006, dated 2010).
Entries after “also recorded” stand apart in the source; their conditions may differ.

Assays:
[1] = Small intestinal injury after repeated administration; settings: 50 μmol/kg at time 0, 12 and 24 hours; assessed 24 h after final dose; FIG. 5
[2] = Hematocrit before and after repeated administration; assay type: in vivo, rat; settings: 50 μmol/kg at time 0, 12 and 24 hours; start versus 24 h after final dose; FIG. 6
Text: Another group of rats received vehicle (1% carboxymethylcellulose).

[3] = Systolic blood pressure in hypertensive (L-NAME) rats; settings: 30 μmol/kg intraperitoneal bolus; recorded for 60 minutes; FIG. 14
[4] = Gastric damage (gastric damage score) in rats after oral dosing; settings: rats fasted 18 h; oral; doses equimolar to diclofenac 20 mg/kg; 3 h after administration; FIG. 1
[5] = test system: leukocyte adherence to the vascular endothelium; assay: Leukocyte adherence to the vascular endothelium, intravital microscopy of mesenteric venules; settings: intragastric 30 μmol/kg; for Number of Adherent Leukocytes: mean ± SEM
Description: Briefly, post-capillary mesenteric venules in anesthetized rats are examined under a light microscope. […] All test compounds were prepared in a vehicle of 1% carboxymethylcellulose. Changes in leukocyte adherence within the venule were recorded with a video camera attached to the microscope, and quantification of the numbers of adherent leukocytes was performed in a blind manner through evaluation of the videotaped images. Each group consisted of 5 male, Wistar rats weighing 150-175 g. A leukocyte was considered “adherent” if it remained stationary for 30 seconds or more (results below are expressed as the mean ± SEM).

[6] = Carrageenan hindpaw edema model; assay type: in vivo, rat; settings: 30 min prior to carrageenan
Description: Male, Wistar rats weighing 175-200 g were given the test compounds orally 30 min prior to subplantar injection of 100 ul of 1% lambda carrageenan. Paw volume measured using an Ugo Basile hydroplethysmometer prior to carrageenan injection and at 1-h intervals thereafter for 5 h.

COX-1 [7] = target: T1, COX-1 (Rattus norvegicus, UniProt Q63921); assay: Whole blood thromboxane B2 synthesis of treated rats (inhibition of COX-1); assay type: in vivo; settings: for COX-1 activity (whole blood thromboxane synthesis): hydrogen sulfide releasing moieties alone, dose not given, FIG. 8
T1 construct: whole blood thromboxane synthesis, which occurs via COX-1; from tissue; host or cells: rat whole blood (ex vivo clotting after oral dosing)
T1 sequence (Q63921 27-602): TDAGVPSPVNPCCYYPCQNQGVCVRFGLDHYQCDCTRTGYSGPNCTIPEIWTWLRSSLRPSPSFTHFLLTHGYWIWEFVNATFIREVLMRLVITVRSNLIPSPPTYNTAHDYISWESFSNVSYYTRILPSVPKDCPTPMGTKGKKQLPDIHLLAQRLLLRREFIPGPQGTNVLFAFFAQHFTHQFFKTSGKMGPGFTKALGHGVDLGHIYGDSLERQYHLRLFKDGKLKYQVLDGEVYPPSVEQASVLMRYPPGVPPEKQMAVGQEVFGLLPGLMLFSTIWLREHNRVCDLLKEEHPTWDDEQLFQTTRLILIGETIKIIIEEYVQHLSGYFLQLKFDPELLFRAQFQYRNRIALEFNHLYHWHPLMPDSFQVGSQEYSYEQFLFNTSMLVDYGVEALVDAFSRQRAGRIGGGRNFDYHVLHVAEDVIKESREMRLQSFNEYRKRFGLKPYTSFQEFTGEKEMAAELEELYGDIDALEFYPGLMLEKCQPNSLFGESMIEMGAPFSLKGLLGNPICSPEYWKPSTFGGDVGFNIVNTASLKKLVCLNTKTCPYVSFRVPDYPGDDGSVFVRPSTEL
Description: Inhibition of COX-1 was also measured using the same rats. […] The samples were then centrifuged for 3 min at 9,000 g and the supernatant was frozen at −80° C. for subsequent measurement of thromboxane B2 concentrations using a specific ELISA.
Inhibition of COX-1 was also measured using the same rats, using the same method as described for FIG. 4. […]

[8] = test system: gastric prostaglandin E2 (PGE2) synthesis (COX-1 and/or COX-2); assay: Gastric prostaglandin E2 (PGE2) synthesis in excised rat gastric tissue; assay type: in vivo; settings: oral; doses equimolar to diclofenac 20 mg/kg; tissue taken 3 h after administration; FIG. 2
Description: Briefly, the tissue samples were minced with scissors for 30 min, then placed in 1 mL of sodium phosphate buffer (pH 7.4) and placed in a shaking water bath (37° C.) for 20 min.

[9] = Incidence of gastric damage at the end of the leukocyte adherence experiment; settings: intragastric 30 μmol/kg; for Percent Incidence of Gastric Damage: end of experiment
Description: Briefly, post-capillary mesenteric venules in anesthetized rats are examined under a light microscope. […] All test compounds were prepared in a vehicle of 1% carboxymethylcellulose. Changes in leukocyte adherence within the venule were recorded with a video camera attached to the microscope, and quantification of the numbers of adherent leukocytes was performed in a blind manner through evaluation of the videotaped images. Each group consisted of 5 male, Wistar rats weighing 150-175 g. A leukocyte was considered “adherent” if it remained stationary for 30 seconds or more (results below are expressed as the mean ± SEM). At the end of the experiment the stomach was opened and examined for the presence of gastric damage, under a dissecting microscope.

COX-2 = target: T2, COX-2 (Rattus norvegicus, UniProt P35355); assay: Rat airpouch assay, exudate PGE2 after zymosan (inhibition of COX-2 in vivo); settings: for COX-2 activity (exudate PGE2): hydrogen sulfide releasing moieties alone, dose not given
T2 construct: from tissue; host or cells: rat subcutaneous airpouch (in vivo, zymosan-induced inflammation)
T2 sequence (P35355 18-604): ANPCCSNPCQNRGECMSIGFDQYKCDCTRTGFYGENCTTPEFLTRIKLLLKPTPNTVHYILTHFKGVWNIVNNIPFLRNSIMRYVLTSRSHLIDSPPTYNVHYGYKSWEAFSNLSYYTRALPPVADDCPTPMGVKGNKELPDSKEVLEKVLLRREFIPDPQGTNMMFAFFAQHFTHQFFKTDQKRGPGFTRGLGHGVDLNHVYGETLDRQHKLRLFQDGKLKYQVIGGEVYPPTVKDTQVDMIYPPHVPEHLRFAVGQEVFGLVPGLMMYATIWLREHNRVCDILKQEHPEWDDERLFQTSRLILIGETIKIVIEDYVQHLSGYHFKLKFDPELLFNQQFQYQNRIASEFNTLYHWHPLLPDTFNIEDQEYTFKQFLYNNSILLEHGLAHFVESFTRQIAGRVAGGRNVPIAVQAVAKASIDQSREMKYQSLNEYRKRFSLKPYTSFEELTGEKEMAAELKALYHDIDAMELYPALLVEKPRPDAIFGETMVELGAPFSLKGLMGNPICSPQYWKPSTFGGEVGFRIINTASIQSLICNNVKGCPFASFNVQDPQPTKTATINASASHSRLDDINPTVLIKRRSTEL
Description: Briefly, a subcutaneous “pouch” is created by repeated injections of air over several days. Once established, inflammation in the pouch can be induced by injection of 1 mL of 1% zymosan. […] Another group of 5 rats was treated with the vehicle, but received an injection of 0.9% sterile saline into the pouch rather than zymosan. […]
Each group consisted of 5 rats.

COX-1 [10] = target: T3, COX-1 (Homo sapiens, UniProt P23219); assay: Human whole blood thromboxane B2 synthesis in vitro; assay type: cell-based; settings: FIG. 12; for inhibition of COX-1 activity (thromboxane B2 synthesis by human blood): 0.1, 0.3, 1 or 3 μM, 45 min 37° C.
T3 construct: from tissue; host or cells: human whole blood from healthy volunteers
Description: Aliquots (0.5 mL) of blood from healthy human volunteers were added to glass tubes containing 10 uL of methanol alone, or one of the test drugs prepared such that the final concentration would be 0.1, 0.3, 1 or 3 μM. The tubes were placed in water bath (37° C.) with gentle shaking for 45 min, after which they were centrifuged (1,000×g) for 10 minutes. The concentration of thromboxane B2 in each sample was then determined using a specific ELISA, as in the studies shown in FIG. 4.

[11] = Healing of acetic acid-induced gastric ulcers; assay type: in vivo, rat
Description: Gastric ulcers were induced via serosal application of acetic acid, as described by Elliott et al., A nitric oxide-releasing nonsteroidal anti-inflammatory drug accelerates gastric ulcer healing in rats. Gastroenterology 1995; 109: 524-530. […] After 4 days of such treatment, the rats were euthanized and the stomach was excised and photographed. The area (in mm^2) of the ulcer was determined planimetrically by an individual unaware of the treatments given to the rats. In a subgroup of 5 rats euthanized 3 days after induction of gastric ulcers (i.e., prior to initiation of drug treatment), the mean surface area of the ulcers was 24±2 mm^2.

T3 sequence (P23219 24-599): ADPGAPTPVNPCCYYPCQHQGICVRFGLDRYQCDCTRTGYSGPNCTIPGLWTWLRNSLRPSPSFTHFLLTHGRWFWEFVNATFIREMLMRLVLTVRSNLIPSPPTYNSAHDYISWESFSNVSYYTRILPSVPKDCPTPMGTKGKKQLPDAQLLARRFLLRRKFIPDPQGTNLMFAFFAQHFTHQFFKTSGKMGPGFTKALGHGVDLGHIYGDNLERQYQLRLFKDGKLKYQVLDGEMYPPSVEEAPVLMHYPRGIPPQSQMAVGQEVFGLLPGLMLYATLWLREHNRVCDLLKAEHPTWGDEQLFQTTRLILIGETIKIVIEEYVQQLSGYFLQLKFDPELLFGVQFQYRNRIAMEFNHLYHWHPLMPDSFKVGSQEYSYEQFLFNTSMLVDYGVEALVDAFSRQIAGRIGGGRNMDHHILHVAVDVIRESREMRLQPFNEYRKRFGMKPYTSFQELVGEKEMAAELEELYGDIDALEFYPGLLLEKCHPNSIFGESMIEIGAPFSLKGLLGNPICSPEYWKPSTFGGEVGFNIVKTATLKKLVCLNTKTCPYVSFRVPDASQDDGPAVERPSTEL

Structure (SMILES)	hematocrit [2]	change in systolic blood pressure [3]	Number of Adherent Leukocytes [5] [per 100 μm vessel length]	gastric PGE2 synthesis [8]	Percent Incidence of Gastric Damage [9] [%]	inhibition of COX-1 activity (thromboxane B2 synthesis by human blood) (COX-1 [10])	COX-1 activity (whole blood thromboxane synthesis) (COX-1 [7])	COX-2 activity (exudate PGE2) (COX-2)	further results
O=C(Cc1ccccc1Nc1c(Cl)cccc1Cl)Oc1ccc(-c2cc(=S)ss2)cc1 [Compound II, [2-(2,6-dichloro-phenylamino)-phenyl]-acetic acid 4-(5-thioxo-5H-[1,2]dithiol-3-yl)-phenyl ester]	no significant effect on hematocrit	did not increase systolic blood pressure as compared to the vehicle-treated group; also recorded: significantly lower than that induced by diclofenac and naproxen, respectively	3.0 ± 0.5	significantly reduced the amount of gastric PGE2 synthesis; also recorded: near-complete	0	–	–	–	extent of small intestinal damage, less than in rats treated with diclofenac [1]: > 90%; gastric damage score [4]: no gastric damage was seen; also recorded: elicited significantly less gastric damage than diclofenac; number of adherent leukocytes compared to the parent NSAID alone [5]: significantly reduced the number of adherent leukocytes per 100 μm vessel length; paw edema (paw volume increase) ([6]; oral, dose equimolar to diclofenac at 3 mg/kg, compared with diclofenac, FIGS. 9, 10, 3 mg/kg): reduced paw edema to a greater extent; also recorded: comparable to the effect of diclofenac at a dose of 10 mg/kg; inhibition at 4.8 mg/kg (COX-1 [7]; rat, po): > 80%; percent incidence of gastric damage compared to the parent NSAID alone [9]: significantly reduced the percent incidence of gastric damage when compared to diclofenac alone; concentrations of PGE2 within the pouch (COX-2) (COX-2; oral 30 min before injection, diclofenac 3 mg/kg, Compound II 4.8 mg/kg, Compound XVII 4.1 mg/kg, 1% zymosan, FIG. 7): markedly reduced the concentrations of PGE2 within the pouch
COc1ccc2c(c1)c(CC(=O)Oc1ccc(-c3cc(=S)ss3)cc1)c(C)n2C(=O)c1ccc(Cl)cc1 [Compound IV, [1-(4-Chloro-benzoyl)-5-methoxy-2-methyl-1-H-indol-3-yl]-acetic acid 4-(5-thioxo-5-H-[1,2]dithiol-3-yl)-phenyl ester]	–	–	3.6 ± 0.7	–	20	concentration-dependent inhibition of COX-1 activity as compared to the vehicle-treated group	–	–	–
O=C(O)Cc1ccccc1Nc1c(Cl)cccc1Cl [Diclofenac, diclofenac, reference compound]	profound reduction of hematocrit	caused a substantial increase in systolic blood pressure	–	–	–	–	–	–	small intestinal damage (erosions/ulcers) [1]: extensive erosions and ulcers in the small intestine; paw edema (paw volume increase) ([6]; oral 1, 3 or 10 mg/kg, FIG. 9): dose-dependently reduced paw edema; gastric ulcer healing (ulcer area) ([11]; 30 μmol/kg twice-daily orally for 4 days, starting 3 days after ulcer induction, FIG. 13): exhibited similar degrees of healing
NC(=S)c1ccc(O)cc1 [TBZ, 4-hydroxythiobenzamide, reference compound]	–	–	–	did not reduce gastric PGE2 synthesis when compared to vehicle	–	–	neither of the hydrogen sulfide releasing moieties (ADT-OH and TBZ) significantly affected COX-1 activity	neither of the hydrogen sulfide releasing moieties (ADT-OH and TBZ) significantly affected COX-2 activity	gastric ulcer healing (ulcer area) ([11]; hydrogen sulfide releasing moiety alone, dose not given): did not significantly affect the healing of gastric ulcers as compared to the vehicle-treated group
COc1ccc2c(c1)c(CC(=O)Oc1ccc(C(N)=S)cc1)c(C)n2C(=O)c1ccc(Cl)cc1 [Compound XIX, [1-(4-Chloro-benzoyl)-5-methoxy-2-methyl-1-H-indol-3-yl]-acetic acid 4-thiocarbamoyl-phenyl ester]	–	–	–	–	0	concentration-dependent inhibition of COX-1 activity as compared to the vehicle-treated group; also recorded: significantly better at inhibiting thromboxane B2 synthesis than the ADT-OH equivalent, Compound IV	–	–	inhibition of COX-1 activity compared with indomethacin (COX-1 [10]; concentrations of 1 and 3 μM): significantly greater (*p<0.05) inhibition of COX-1 activity than that produced by indomethacin
Oc1ccc(-c2cc(=S)ss2)cc1 [ADT-OH, 5-p-hydroxyphenyl-1,2-dithiole-3-thione, reference compound]	–	–	–	did not reduce gastric PGE2 synthesis when compared to vehicle	–	–	neither of the hydrogen sulfide releasing moieties (ADT-OH and TBZ) significantly affected COX-1 activity	neither of the hydrogen sulfide releasing moieties (ADT-OH and TBZ) significantly affected COX-2 activity	–
